Test results from patent US4656166A, “Antibiotic compounds derived from cephalosporins, process for their production and pharmaceutical compositions” (Sanofi, priority 1983, dated 1987).
≈ marks a conversion by molar mass, not a printed value.

Columns and labels:
Assay type in all cases: cell-based
Escherichia coli SOL 90 = assay: MIC, in vitro dilution method, Escherichia coli SOL 90 (Table III); settings: SOL90; Escherichia coli SOL 90; dilution method; read-out: MIC
Text: (§1) The products of the invention have been studied as regards their pharmacological properties and, more especially, bacteriostatic action. This has been determined in vitro by the dilution method, and the study was on Gram negative strains.
(§2) Results, expressed in minimum inhibiting concentrations (MIC-- μg/ml), are collected in the following table (Table III).

Citrobacter RL 49 = assay: MIC, in vitro dilution method, Citrobacter RL 49 (Table III); settings: RL49; Citrobacter RL 49; dilution method; read-out: MIC
Text: as §1, §2

[1] = system: Proteus vulgaris RL 99 bis; assay: MIC, in vitro dilution method, Proteus vulgaris RL 99 bis (Table III); settings: RL99BIS; Proteus vulgaris RL 99 bis; dilution method; read-out: MIC
Text: as §1, §2

Serratia RL 72 = assay: MIC, in vitro dilution method, Serratia RL 72 (Table III); settings: RL72
Text: as §1, §2

Klebsiella RO 30 = assay: MIC, in vitro dilution method, Klebsiella RO 30 (Table III); settings: RO30; Klebsiella RO 30; dilution method; read-out: MIC
Text: as §1, §2

Enterobacter RO 154 = assay: MIC, in vitro dilution method, Enterobacter RO 154 (Table III); settings: RO154; Enterobacter RO 154; dilution method; read-out: MIC
Text: as §1, §2

Pseudomonas RL 112 = assay: MIC, in vitro dilution method, Pseudomonas RL 112 (Table III); settings: RL112
Text: as §1, §2

Row | SMILES | MIC (Escherichia coli SOL 90) | MIC (Citrobacter RL 49) | MIC [1] | MIC (Serratia RL 72) | MIC (Klebsiella RO 30) | MIC (Enterobacter RO 154) | MIC (Pseudomonas RL 112)
1 | CC(CCN)C(=O)OCC1=C(C(=O)O)N2C(=O)C(NC(=O)C(=NOC3(C(=O)O)CCC3)c3csc(N)n3)C2[S+]([O-])C1 (stereo not shown) [42 209] | 0.25 µg/mL (≈ 0.408 µM) | ≤ 0.12 µg/mL | ≤ 0.12 µg/mL | 0.5 µg/mL (≈ 0.816 µM) | 0.25 µg/mL (≈ 0.408 µM) | ≤ 0.12 µg/mL | 4 µg/mL (≈ 6.53 µM)
2 | Nc1nc(/C(=N/OC2(C(=O)O)CCC2)C(=O)NC2C(=O)N3C(C(=O)O)=C(COC(=O)C4(N)CCCC4)C[S+]([O-])C23)cs1 (stereo not shown) [42 210] | 1 µg/mL (≈ 1.6 µM) | 0.5 µg/mL (≈ 0.8 µM) | 0.25 µg/mL (≈ 0.4 µM) | 1 µg/mL (≈ 1.6 µM) | 0.5 µg/mL (≈ 0.8 µM) | 0.25 µg/mL (≈ 0.4 µM) | 4 µg/mL (≈ 6.4 µM)
3 | NC[C@H]1CC[C@H](C(=O)OCC2=C(C(=O)O)N3C(=O)C(NC(=O)/C(=N\OCC(=O)O)c4csc(N)n4)C3[S+]([O-])C2)CC1 (stereo partly shown) [42 211] | ≤ 0.12 µg/mL | ≤ 0.12 µg/mL | ≤ 0.12 µg/mL | ≤ 0.12 µg/mL | ≤ 0.12 µg/mL | ≤ 0.12 µg/mL | 64 µg/mL (≈ 104 µM)
4 | NC[C@H]1CC[C@H](C(=O)OCC2=C(C(=O)O)N3C(=O)C(NC(=O)/C(=N\OC4(C(=O)O)CCC4)c4csc(N)n4)C3[S+]([O-])C2)CC1 (stereo partly shown) [42 212] | ≤ 0.12 µg/mL | ≤ 0.12 µg/mL | ≤ 0.12 µg/mL | 0.25 µg/mL (≈ 0.383 µM) | ≤ 0.12 µg/mL | ≤ 0.12 µg/mL | 4 µg/mL (≈ 6.13 µM)
5 | CC(O/N=C(\C(=O)NC1C(=O)N2C(C(=O)O)=C(COC(=O)CCCCN)C[S+]([O-])C12)c1csc(N)n1)C(=O)O (stereo not shown) [42 214] | ≤ 0.12 µg/mL | ≤ 0.12 µg/mL | ≤ 0.12 µg/mL | 0.5 µg/mL (≈ 0.852 µM) | ≤ 0.12 µg/mL | ≤ 0.12 µg/mL | 16 µg/mL (≈ 27.3 µM)
6 | CC(O/N=C(\C(=O)NC1C(=O)N2C(C(=O)O)=C(COC(=O)C3CCNCC3)C[S+]([O-])C12)c1csc(N)n1)C(=O)O (stereo not shown) [42 215] | ≤ 0.12 µg/mL | ≤ 0.12 µg/mL | ≤ 0.12 µg/mL | 0.25 µg/mL (≈ 0.418 µM) | ≤ 0.12 µg/mL | ≤ 0.12 µg/mL | 8 µg/mL (≈ 13.4 µM)
7 | CC(O/N=C(\C(=O)NC1C(=O)N2C(C(=O)O)=C(COC(=O)c3ccc(CN)cc3)C[S+]([O-])C12)c1csc(N)n1)C(=O)O (stereo not shown) [42 216] | ≤ 0.12 µg/mL | ≤ 0.12 µg/mL | ≤ 0.12 µg/mL | 0.5 µg/mL (≈ 0.806 µM) | ≤ 0.12 µg/mL | ≤ 0.12 µg/mL | 8 µg/mL (≈ 12.9 µM)
8 | CC(O/N=C(\C(=O)NC1C(=O)N2C(C(=O)O)=C(COC(=O)[C@H]3CC[C@H](CN)CC3)C[S+]([O-])C12)c1csc(N)n1)C(=O)O (stereo partly shown) [42 217] | ≤ 0.12 µg/mL | ≤ 0.12 µg/mL | ≤ 0.12 µg/mL | 0.25 µg/mL (≈ 0.399 µM) | ≤ 0.12 µg/mL | ≤ 0.12 µg/mL | 16 µg/mL (≈ 25.5 µM)
9 | CC(C)(ON=C(C(=O)NC1C(=O)N2C(C(=O)O)=C(COC(=O)C3CCCCC3CN)C[S+]([O-])C12)c1csc(N)n1)C(=O)O (stereo not shown) [42 321] | 0.5 µg/mL (≈ 0.78 µM) | 0.5 µg/mL (≈ 0.78 µM) | ≤ 0.125 µg/mL | 1 µg/mL (≈ 1.56 µM) | 0.5 µg/mL (≈ 0.78 µM) | 0.25 µg/mL (≈ 0.39 µM) | 8 µg/mL (≈ 12.5 µM)
10 | CC(C)(O/N=C(\C(=O)NC1C(=O)N2C(C(=O)O)=C(COC(=O)CC3CCCCN3)C[S+]([O-])C12)c1csc(N)n1)C(=O)O (stereo not shown) [42 371] | 0.5 µg/mL (≈ 0.798 µM) | 0.25 µg/mL (≈ 0.399 µM) | ≤ 0.125 µg/mL | 0.5 µg/mL (≈ 0.798 µM) | 0.25 µg/mL (≈ 0.399 µM) | 0.25 µg/mL (≈ 0.399 µM) | 8 µg/mL (≈ 12.8 µM)
11 | CC(C)(O/N=C(\C(=O)NC1C(=O)N2C(C(=O)O)=C(COC(=O)CC3CCCNC3)C[S+]([O-])C12)c1csc(N)n1)C(=O)O (stereo not shown) [42 372] | 0.25 µg/mL (≈ 0.399 µM) | ≤ 0.125 µg/mL | ≤ 0.125 µg/mL | 0.25 µg/mL (≈ 0.399 µM) | 0.25 µg/mL (≈ 0.399 µM) | ≤ 0.125 µg/mL | 4 µg/mL (≈ 6.38 µM)
12 | CC(C)(O/N=C(\C(=O)NC1C(=O)N2C(C(=O)O)=C(COC(=O)c3cccc(NC(=O)CN)c3)C[S+]([O-])C12)c1csc(N)n1)C(=O)O (stereo not shown) [42 374] | 0.5 µg/mL (≈ 0.738 µM) | 0.25 µg/mL (≈ 0.369 µM) | ≤ 0.125 µg/mL | 1 µg/mL (≈ 1.48 µM) | 0.25 µg/mL (≈ 0.369 µM) | 0.25 µg/mL (≈ 0.369 µM) | 4 µg/mL (≈ 5.9 µM)
13 | Cc1ccc(C(=O)OCC2=C(C(=O)O)N3C(=O)C(NC(=O)/C(=N\OC(C)(C)C(=O)O)c4csc(N)n4)C3[S+]([O-])C2)cc1CN (stereo not shown) [42 379] | 0.25 µg/mL (≈ 0.385 µM) | ≤ 0.125 µg/mL | ≤ 0.125 µg/mL | 0.5 µg/mL (≈ 0.771 µM) | ≤ 0.125 µg/mL | ≤ 0.125 µg/mL | 8 µg/mL (≈ 12.3 µM)
14 | Cc1cc(C(=O)OCC2=C(C(=O)O)N3C(=O)C(NC(=O)/C(=N\OC(C)(C)C(=O)O)c4csc(N)n4)C3[S+]([O-])C2)ccc1CN (stereo not shown) [42 380] | ≤ 0.125 µg/mL | ≤ 0.125 µg/mL | ≤ 0.125 µg/mL | 1 µg/mL (≈ 1.54 µM) | ≤ 0.125 µg/mL | ≤ 0.125 µg/mL | 4 µg/mL (≈ 6.17 µM)
15 | CCNCc1ccc(C(=O)OCC2=C(C(=O)O)N3C(=O)C(NC(=O)/C(=N\OC(C)(C)C(=O)O)c4csc(N)n4)C3[S+]([O-])C2)cc1 (stereo not shown) [42 396] | ≤ 0.125 µg/mL | ≤ 0.125 µg/mL | ≤ 0.125 µg/mL | 1 µg/mL (≈ 1.51 µM) | ≤ 0.125 µg/mL | ≤ 0.125 µg/mL | 8 µg/mL (≈ 12.1 µM)
16 | CC(C)NCc1ccc(C(=O)OCC2=C(C(=O)O)N3C(=O)C(NC(=O)/C(=N\OC(C)(C)C(=O)O)c4csc(N)n4)C3[S+]([O-])C2)cc1 (stereo not shown) [42 397] | ≤ 0.125 µg/mL | ≤ 0.125 µg/mL | ≤ 0.125 µg/mL | 1 µg/mL (≈ 1.48 µM) | ≤ 0.125 µg/mL | ≤ 0.125 µg/mL | 8 µg/mL (≈ 11.8 µM)
17 | COc1cc(C(=O)OCC2=C(C(=O)O)N3C(=O)C(NC(=O)/C(=N\OC(C)(C)C(=O)O)c4csc(N)n4)C3[S+]([O-])C2)ccc1CN (stereo not shown) [42 461] | 0.25 µg/mL (≈ 0.376 µM) | ≤ 0.125 µg/mL | ≤ 0.125 µg/mL | 2 µg/mL (≈ 3.01 µM) | ≤ 0.125 µg/mL | ≤ 0.125 µg/mL | 8 µg/mL (≈ 12 µM)
18 | NCc1cccc(C(=O)OCC2=C(C(=O)O)N3C(=O)C(NC(=O)/C(=N\OC4(C(=O)O)CCC4)c4csc(N)n4)C3[S+]([O-])C2)c1 (stereo not shown) [42 462] | 0.25 µg/mL (≈ 0.387 µM) | ≤ 0.125 µg/mL | ≤ 0.125 µg/mL | 0.5 µg/mL (≈ 0.773 µM) | ≤ 0.125 µg/mL | ≤ 0.125 µg/mL | 4 µg/mL (≈ 6.19 µM)
19 | Cc1cc(C(=O)OCC2=C(C(=O)O)N3C(=O)C(NC(=O)/C(=N\OC4(C(=O)O)CCC4)c4csc(N)n4)C3[S+]([O-])C2)ccc1CN (stereo not shown) [42 463] | ≤ 0.125 µg/mL | ≤ 0.125 µg/mL | ≤ 0.125 µg/mL | 0.5 µg/mL (≈ 0.757 µM) | ≤ 0.125 µg/mL | ≤ 0.125 µg/mL | 4 µg/mL (≈ 6.05 µM)
20 | CNCc1ccc(C(=O)OCC2=C(C(=O)O)N3C(=O)C(NC(=O)/C(=N\OC4(C(=O)O)CCC4)c4csc(N)n4)C3[S+]([O-])C2)cc1 (stereo not shown) [42 464] | ≤ 0.125 µg/mL | ≤ 0.125 µg/mL | ≤ 0.125 µg/mL | 0.5 µg/mL (≈ 0.757 µM) | ≤ 0.125 µg/mL | ≤ 0.125 µg/mL | 4 µg/mL (≈ 6.05 µM)
21 | CC(C)(O/N=C(\C(=O)NC1C(=O)N2C(C(=O)O)=C(COC(=O)c3cccc(NC(=O)CCN)c3)C[S+]([O-])C12)c1csc(N)n1)C(=O)O (stereo not shown) [42 465] | ≤ 0.125 µg/mL | ≤ 0.125 µg/mL | ≤ 0.125 µg/mL | 2 µg/mL (≈ 2.89 µM) | 0.5 µg/mL (≈ 0.723 µM) | 0.5 µg/mL (≈ 0.723 µM) | 8 µg/mL (≈ 11.6 µM)
22 | Nc1nc(/C(=N/OC2(C(=O)O)CCC2)C(=O)NC2C(=O)N3C(C(=O)O)=C(COC(=O)CC4CCCCN4)C[S+]([O-])C23)cs1 (stereo not shown) [42 471] | 0.5 µg/mL (≈ 0.783 µM) | 0.25 µg/mL (≈ 0.391 µM) | ≤ 0.125 µg/mL | 0.5 µg/mL (≈ 0.783 µM) | 0.25 µg/mL (≈ 0.391 µM) | 0.25 µg/mL (≈ 0.391 µM) | 8 µg/mL (≈ 12.5 µM)
